Structures can show the parent of a compound that is named as a salt.
What was measured:
[1] = system: HCV subgenomic replicon cell line Huh7/Rep-Feo (genotype 1b, N strain); experiment: HCV replicon assay (luciferase); assay type: cell-based; details: Hepatitis C virus, Huh-7, 72 h post-treatment, luciferase activity, read-out: EC50 (50% effective concentration), suppression of HCV replication
Description: (§1) Further, we investigated the effect of Compounds 2 and 3 on both viral replication and cell growth in the HCV subgenomic replicon cell line Huh7/Rep-Feo (genotype 1b, N strain). […] This was likely due to its low membrane permeability caused by the negatively charged sulfate group within the molecule in aqueous solution.
The Huh7/Rep-Feo cell line harboring the subgenomic replicon RNA of the N strain (genotype 1b) was seeded at 2 × 10^4 cells per well in a 48-well plate and incubated at 37 °C for 24 h. A serial dilution of Compounds 2 and 3 was added to each well of the plate. The treated cells were harvested 72 h post-treatment and lysed in cell culture lysis reagent (Promega, Madison, WI, USA). Luciferase activity in the harvested cells was estimated with a luciferase assay system (Promega). The resulting luminescence was detected by a Luminescencer-JNR AB-2100 (ATTO, Tokyo, Japan). The anti-HCV activity was calculated as the intensity of the luminescence relative to that of the control (in the absence of Compounds 2 and 3 but in the presence of DMSO).

Cytotoxicity assay (MTS) = assay type: cell-based; details: human, Huh7/Rep-Feo cells, 72 h post-treatment, read-out: CC50 (50% cytotoxicity concentration)
Description: as §1
Huh7/Rep-Feo cells were seeded at a density of 1 × 10^4 cells per well in a 96-well plate and then incubated at 37 °C for 24 h. Compounds 2 and 3 were added to the culture medium to yield various concentrations and were then harvested 72 h post-treatment. Cell viability was determined by a dimethyl thiazolcarboxymethoxyphenyl sulfophenyltetrazolium (MTS) assay using a CellTiter 96 aqueous one-solution cell proliferation assay kit (Promega), according to the manufacturer’s protocol.

HCV NS3 helicase = biological target: T1, HCV NS3 helicase (Hepatitis C virus genotype 1a, UniProt P27958); experiment: fluorescence helicase assay based on FRET; assay type: biochemical; details: dsRNA substrate labeled with Alexa Fluor 700 and Black Hole Quencher 3; 240 nM NS3 helicase; 30 min at 37 °C; triplicate; read-out: IC50 against NS3 helicase
T1 construct: HCV NS3 protein with helicase activity was expressed and purified as previously described; made in house
T1 sequence (P27958 1027-1657): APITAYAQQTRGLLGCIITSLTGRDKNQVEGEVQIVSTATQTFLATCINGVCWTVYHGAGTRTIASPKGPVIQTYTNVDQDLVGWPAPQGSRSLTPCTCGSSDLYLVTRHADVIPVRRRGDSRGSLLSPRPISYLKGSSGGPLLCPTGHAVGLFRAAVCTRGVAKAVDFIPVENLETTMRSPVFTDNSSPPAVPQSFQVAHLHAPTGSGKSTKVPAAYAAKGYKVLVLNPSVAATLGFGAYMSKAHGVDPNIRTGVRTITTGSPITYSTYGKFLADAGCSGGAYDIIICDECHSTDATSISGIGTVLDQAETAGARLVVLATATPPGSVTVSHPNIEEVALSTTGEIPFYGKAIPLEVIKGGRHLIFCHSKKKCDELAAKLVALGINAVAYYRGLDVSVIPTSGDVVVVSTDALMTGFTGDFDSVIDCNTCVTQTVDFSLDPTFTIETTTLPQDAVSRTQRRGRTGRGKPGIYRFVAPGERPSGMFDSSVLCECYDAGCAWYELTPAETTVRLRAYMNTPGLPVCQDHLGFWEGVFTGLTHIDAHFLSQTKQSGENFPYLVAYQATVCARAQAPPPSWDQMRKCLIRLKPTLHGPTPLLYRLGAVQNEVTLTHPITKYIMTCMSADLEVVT
Description: For enzymatic inhibition, we used the fluorescence helicase assay based on fluorescence resonance energy transfer (FRET) to examine NS3 helicase inhibition by Compounds 1–4. […] The measured values in triplicate for each concentration of Compounds 1–4 were averaged and divided by the mean value from the negative control sample that contains DMSO instead of Compounds 1–4 to show the NS3 helicase activity as a percentage.
The fluorescence helicase assay based on FRET was conducted as we previously described, except that we used a DNA capture strand rather than an RNA capture strand for which the sequence was complementary to that of the quencher strand. HCV NS3 protein with helicase activity was expressed and purified as previously described. In the assay, when NS3 helicase unwinds the dsRNA substrate, the DNA capture strand binds to the unwound single-stranded RNA (ssRNA) substrate labeled with Black Hole Quencher 3 and prevents the ssRNA substrate from reannealing to the complementary ssRNA substrate labeled with Alexa Fluor 700. […] Thus, the NS3 helicase activity can be monitored by the real-time measurement of the fluorescence intensity of Alexa Fluor 700 through 30 min incubation at 37 °C by using a SpectraMax Gemini XS microplate reader (Molecular Devices, Sunnyvale, CA, USA). The reaction mixture contained 25 mM MOPS-NaOH (pH 6.5), 3 mM MgCl2, 2 mM dithiothreitol, 4 U RNasin (Promega, Madison, WI, USA), 50 nM dsRNA substrate, 400 nM DNA capture strand, 5 mM ATP, a serial dilution of Compounds 1–4 dissolved in DMSO, and 240 nM NS3 helicase in a total reaction volume of 20 μL. The NS3 helicase activity was calculated as the initial reaction velocity relative to that of the control (in the absence of Compounds 1–4 but in the presence of DMSO). The IC50 value was calculated using KaleidaGraph (Synergy Software, Reading, PA, USA) by fitting plots of relative helicase activity (%) vs. [I] using Equation (1):(1) % Activity = 100/1 + ([I]/IC50)^h where h is the Hill coefficient, and [I] is the inhibitor concentration.

[2] = system: hepatitis C virus (HCV) NS3 helicase; details: authentic molecule; read-out: IC50 against NS3 helicase; cited from earlier work

| Compound | EC50 [1] [µM] | CC50 at 72 h (Cytotoxicity assay (MTS)) [µM] | IC50 (HCV NS3 helicase) [µM] | IC50 [2] [µM] |
| --- | --- | --- | --- | --- |
| CCCc1cc(O)c2c(=O)c3c(O)cc(OS(=O)(=O)O)cc3cc-2o1 [Compound 2] | 57 | 52 | 95 | – |
| CCCc1cc(O)c2c(=O)c3c(O)c(-c4c(OS(=O)(=O)O)cc(O)c5c(=O)c6c(O)cc(C)oc-6cc45)c(OS(=O)(=O)O)cc3cc-2o1 [Compound 4] | – | – | 5 | – |
| Cc1cc(O)c2c(=O)c3c(O)cc(OS(=O)(=O)O)cc3cc-2o1 [Compound 1] | – | – | 71 | – |
| Cc1cc(O)c2c(=O)c3c(O)c(-c4c(OS(=O)(=O)O)cc(O)c5c(=O)c6c(O)cc(C)oc-6cc45)c(OS(=O)(=O)O)cc3cc-2o1 [Compound 3] | 67 | 70 | 7 | – |
| CC(C)CCC[C@@H](C)[C@H]1CC[C@H]2[C@@H]3CC=C4C[C@@H](OS(=O)(=O)O)CC[C@]4(C)[C@H]3CC[C@]12C [cholesterol sulfate] | – | – | – | 1.7 ± 0.2 |

Reference: paper PMC5408263, “Four Aromatic Sulfates with an Inhibitory Effect against HCV NS3 Helicase from the Crinoid Alloeocomatella polycladia” (Marine Drugs, 2017)
